Key:
[1] = target: T1, Platelet-derived growth factor receptor beta (Homo sapiens, UniProt P09619); assay: PDGFRβ HTRF Assay
Description: PDGFRβ E+I pre-incubation: Add 2 μL 2× protein solution to columns 1-24 using the Multidrop Combi. Centrifuge at 1000 rpm for 1 min. Incubate 30 min at RTStep 2. Enzymatic reaction: Add 2 μL substrate solution to columns 1-24 to initiate the reaction using the Multidrop Combi; cover/seal the assay plate to reduce evaporation. Centrifuge at 1000 rpm for 1 min. […] Quench/Detection: Add 2 μl 3× quench/detection solution to columns 1-24 using the Multidrop Combi; cover/seal the plate. Centrifuge 1 min 1000 rpm. Incubate at RT for 60 min.

[2] = target: T1, Platelet-derived growth factor receptor beta; assay: PDGFRβ LanthaScreen Assay
Description: Dispensing inhibitors: Using Echo, dispense 40 nL/well (or less) compound serial dilutions in DMSO onto the assay plate.Step 2. Dispensing Kinase-Tracer solution: Add 4 μL/well Kinase-Tracer solution. Seal the plate with optically transparent plate seal. […] Detection: Read TR-FRET signals after 18 hours incubation at room temperature.III. […] IC50 values are determined from a 4-parameter fit, using the following equation: Y=Bottom+(Top−Bottom)/(1+10((Log IC50−X)*Hill slope)), where X=log10 of the compound concentration; top can be defined by PC; bottom defined by NC.

[3] = target: Vascular endothelial growth factor receptor 2 (Homo sapiens, UniProt P35968); assay: VEGFR ADP GLO Assay
Description: Step 1. Dispensing inhibitors/controls: Using Echo, dispense 10 nL/well compound serial dilutions in DMSO to columns 1-22 (in 384-well plates) or columns 1-44 (in 1536-well plates). Dilution series=11 pt, 3-fold dilutions. The top compound concentration in the source plate is […]. The top compound concentration in the assay plate is 10 uM. Using Echo, dispense 10 nl/well DMSO to column 23 (in 384-well plates) or columns 45-47 (in 1536-well plates). These wells will serve as negative control wells Using Echo, dispense 10 nl/well 400 uM TAK-593 in DMSO to column 24 (in 384-well plates) or column 48 (in 1536-well plates). The final concentration of TAK-593 in the assay should be 1 uM. These wells will serve as positive control wells.Step 2. Pre-incubation of inhibitors with kinase: Add 2 μL/well 2× kinase solution. Centrifuge at 1000 rpm for 1 min. Incubate at room temperature for 30 min.Step 3. Kinase cascade reaction: Add 2 μL/well 2× substrate/ATP solution to initiate kinase reactions. Centrifuge at 1000 rpm for 1 min. Incubate at room temperature for 180 min.Final concentrations of components in the assay:[VEGFR2]=5 nM;[ATP]=1.2 mM;[Srctide]=1 mg/mL;[DMSO]≤1%.Step 4. Quench: Add 2 uL/well ADP Glo Reagent+0.05% CHAPS. Centrifuge at 1000 rpm for 1 min; Incubate at room temperature for one hour.Step 5. Detection: Add 2 uL/well Kinase Detection Reagent+0.05% CHAPS. Centrifuge at 1000 rpm for 1 min; Incubate at room temperature for 1 hour; Read Luminescence on a plate reader.

Sequence of Vascular endothelial growth factor receptor 2 (P35968 whole entry): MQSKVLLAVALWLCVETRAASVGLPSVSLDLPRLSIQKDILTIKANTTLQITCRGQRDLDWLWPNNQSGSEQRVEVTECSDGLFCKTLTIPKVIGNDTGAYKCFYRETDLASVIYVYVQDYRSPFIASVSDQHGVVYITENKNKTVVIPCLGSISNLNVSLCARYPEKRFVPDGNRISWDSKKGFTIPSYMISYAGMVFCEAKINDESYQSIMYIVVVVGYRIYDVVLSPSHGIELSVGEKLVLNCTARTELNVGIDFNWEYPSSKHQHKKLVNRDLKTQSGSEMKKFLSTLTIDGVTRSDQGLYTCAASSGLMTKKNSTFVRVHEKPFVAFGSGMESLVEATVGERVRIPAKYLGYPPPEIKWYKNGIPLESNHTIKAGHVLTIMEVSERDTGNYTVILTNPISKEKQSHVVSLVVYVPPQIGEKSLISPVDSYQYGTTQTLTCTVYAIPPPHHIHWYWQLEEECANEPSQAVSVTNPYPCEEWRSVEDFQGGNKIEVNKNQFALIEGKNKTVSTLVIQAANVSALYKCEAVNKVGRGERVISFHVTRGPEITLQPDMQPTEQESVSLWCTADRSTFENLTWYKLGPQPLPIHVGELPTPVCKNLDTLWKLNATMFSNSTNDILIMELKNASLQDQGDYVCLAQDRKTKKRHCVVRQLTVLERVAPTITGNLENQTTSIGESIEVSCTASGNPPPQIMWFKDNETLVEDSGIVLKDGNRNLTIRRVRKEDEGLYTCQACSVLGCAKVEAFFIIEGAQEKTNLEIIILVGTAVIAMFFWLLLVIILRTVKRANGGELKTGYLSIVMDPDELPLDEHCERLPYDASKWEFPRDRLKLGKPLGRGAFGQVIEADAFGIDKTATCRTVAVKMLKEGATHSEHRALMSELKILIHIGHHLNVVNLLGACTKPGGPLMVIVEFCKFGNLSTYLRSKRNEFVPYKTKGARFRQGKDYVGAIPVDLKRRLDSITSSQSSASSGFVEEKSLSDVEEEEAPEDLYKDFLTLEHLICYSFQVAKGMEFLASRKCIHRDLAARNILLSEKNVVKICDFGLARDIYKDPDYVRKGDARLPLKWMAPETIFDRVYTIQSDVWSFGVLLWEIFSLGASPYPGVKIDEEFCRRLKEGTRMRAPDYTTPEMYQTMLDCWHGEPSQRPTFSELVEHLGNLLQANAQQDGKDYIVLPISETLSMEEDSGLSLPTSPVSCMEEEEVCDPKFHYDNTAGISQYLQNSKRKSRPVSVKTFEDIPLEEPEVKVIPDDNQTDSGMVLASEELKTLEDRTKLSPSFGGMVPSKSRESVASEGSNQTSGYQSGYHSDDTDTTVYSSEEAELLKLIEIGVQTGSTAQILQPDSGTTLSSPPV
T1 sequence (P09619 whole entry): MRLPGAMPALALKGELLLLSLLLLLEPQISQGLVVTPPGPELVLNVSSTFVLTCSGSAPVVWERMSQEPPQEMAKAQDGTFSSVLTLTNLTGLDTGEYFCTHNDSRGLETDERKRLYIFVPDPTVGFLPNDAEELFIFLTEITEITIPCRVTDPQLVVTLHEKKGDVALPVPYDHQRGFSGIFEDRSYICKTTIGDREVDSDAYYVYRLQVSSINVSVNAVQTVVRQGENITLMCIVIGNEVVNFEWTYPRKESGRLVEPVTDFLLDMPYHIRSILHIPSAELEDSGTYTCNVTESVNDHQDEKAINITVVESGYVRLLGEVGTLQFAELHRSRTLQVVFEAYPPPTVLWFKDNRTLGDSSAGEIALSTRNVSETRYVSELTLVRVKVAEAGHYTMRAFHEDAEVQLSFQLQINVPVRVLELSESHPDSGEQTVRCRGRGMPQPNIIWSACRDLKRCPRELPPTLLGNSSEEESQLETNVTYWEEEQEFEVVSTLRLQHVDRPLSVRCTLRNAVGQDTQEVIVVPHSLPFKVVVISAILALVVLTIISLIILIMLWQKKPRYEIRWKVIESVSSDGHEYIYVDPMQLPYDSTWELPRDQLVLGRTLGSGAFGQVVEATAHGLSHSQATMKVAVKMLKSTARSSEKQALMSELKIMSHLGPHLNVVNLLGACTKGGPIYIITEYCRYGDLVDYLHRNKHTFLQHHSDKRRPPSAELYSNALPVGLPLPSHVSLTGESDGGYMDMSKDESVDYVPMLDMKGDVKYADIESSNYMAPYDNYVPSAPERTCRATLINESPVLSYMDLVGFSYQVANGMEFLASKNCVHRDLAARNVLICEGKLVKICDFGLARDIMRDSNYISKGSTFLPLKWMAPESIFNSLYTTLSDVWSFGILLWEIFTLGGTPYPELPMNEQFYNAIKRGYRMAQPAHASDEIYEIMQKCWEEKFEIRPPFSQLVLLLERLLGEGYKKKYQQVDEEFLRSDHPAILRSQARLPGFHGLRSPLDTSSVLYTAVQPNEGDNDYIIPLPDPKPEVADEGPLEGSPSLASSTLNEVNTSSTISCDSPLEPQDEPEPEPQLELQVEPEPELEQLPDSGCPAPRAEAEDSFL

Structure (SMILES) | IC50 [1] [nM] | IC50 [2] [nM] | IC50 [3] [nM]
Cc1ncc(NC(=O)CN2C[C@H](C)O[C@@H](C)C2)cc1Nc1nn(C)c2nc(Nc3cnn(C)c3)ncc12 (relative stereo) [US20240360134, Example 73] | 0.5 | 2.6 | 4570
COC(=O)Cc1cccc(Nc2ncc3c(Nc4cc(C(=O)NCCN5CCCC5(C)C)cnc4C)nn(C)c3n2)c1 [US20240360134, Example 43] | 0.54 | 4.1 | 2080
COC(=O)C(C)(C)c1cccc(Nc2ncc3c(Nc4cc(C(=O)NCCN5CCCC5(C)C)cnc4C)nn(C)c3n2)c1 [US20240360134, Example 46] | 0.81 | 4.9 | 3580
Cc1ncc(NC(=O)CN2CCC[C@@H]2C)cc1Nc1nn(C)c2nc(Nc3cnn(C)c3)ncc12 [US20240360134, Example 71] | 0.25 | 2.1 | > 7500
Cc1ncc(NC(=O)CN2CCC(F)(F)CC2)cc1Nc1nn(C)c2nc(Nc3cnn(C)c3)ncc12 [US20240360134, Example 72] | 0.27 | 1.7 | 1100
Cc1ncc(NC(=O)CN2CCC3(CC3)C2)cc1Nc1nn(C)c2nc(Nc3cnn(C)c3)ncc12 [US20240360134, Example 74] | 0.23 | 1.6 | 5070
Cc1ncc(NC(=O)CN2CCC(F)(F)C2)cc1Nc1nn(C)c2nc(Nc3cnn(C)c3)ncc12 [US20240360134, Example 75] | 0.35 | 2.1 | 847
Cc1ncc(NC(=O)CN2CC(F)(F)C2)cc1Nc1nn(C)c2nc(Nc3cnn(C)c3)ncc12 [US20240360134, Example 76] | 0.42 | 2.6 | 3600
Cc1ncc(NC(=O)CN2C[C@@H](C)O[C@@H](C)C2)cc1Nc1nn(C)c2nc(Nc3cnn(C)c3)ncc12 [US20240360134, Example 78] | 0.59 | 3.7 | 3930
Cc1ncc(NC(=O)CN(CCO)C2CCCC2)cc1Nc1nn(C)c2nc(Nc3cnn(C)c3)ncc12 [US20240360134, Example 79] | – | 2.5 | 5390
Cc1ncc(NC(=O)CN(CCCO)C2CCCC2)cc1Nc1nn(C)c2nc(Nc3cnn(C)c3)ncc12 [US20240360134, Example 80] | 0.5 | 3.2 | > 7500

From BindingDB's records for patent US20240360134 (Actelion Pharmaceuticals, 2024)
